According to patent US20200010910A1, “Cytotoxic Chemotherapy-Based Predictive Assays for Acute Myeloid Leukemia” (The Regents of The University of California, priority 2017, published 2020):

Legend:
H727 = assay: MTT assay IC50; format: cell-based, human
Method: (§1) Six non-small cell lung cancer (NSCLC) cell lines were treated in culture with [^14C]carboplatin. Carboplatin-DNA monoadduct levels over time were determined by measuring ^14C content in genomic DNA with accelerator mass spectrometry (AMS). Cellular sensitivity to carboplatin and cisplatin was analyzed by the MTT assay (Henderson et al., International Journal of Cancer 2011).
(§2) Human NSCLC cell lines H23, H460, H727, HCC827, H1975, and A549 were purchased from ATCC and were cultured with the recommended medium. The MTT assay was performed as previously reported to determine the drug concentration required to inhibit cell growth by 50% (IC50) of cisplatin and carboplatin. [^14C]Carboplatin (at 53 mCi/mmol) was mixed with unlabeled carboplatin to achieve the specific activities required for microdoses and therapeutic doses. Table 1 lists the six NSCLC cell lines and summarizes their IC50 characteristics, induced carboplatin-DNA monoadducts when treated with [^14C]carboplatin, and p and r^2 values for correlation analysis to the IC50 concentrations.

A549 = assay: MTT assay IC50; format: cell-based, human
Method: as §1, §2

H460 = assay: MTT assay IC50; format: cell-based, human
Method: as §1, §2

H1975 = assay: MTT assay IC50; format: cell-based, human
Method: as §1, §2

HCC827 = assay: MTT assay IC50; format: cell-based, human
Method: as §1, §2

H23 = assay: MTT assay IC50; format: cell-based, human
Method: as §1, §2

[1] = carboplatin plasma pharmacokinetics in mice; format: in vivo, Balb/c mice
Method: Balb/c mice received a bolus [^14C]carboplatin tail vein injection at microdose (0.373 mg/kg; 50,000 dpm/gm) or therapeutic dose (37.3 mg/kg; 50,000 dpm/gm). Mice were sacrificed in triplicate at 15 min, 1 h, 2 h, 8 h and 24 h. Concentrations of carboplatin in plasma were measured by liquid scintillation counting at each time point.

5637 = assay: MTT assay IC50, bladder cancer cell line; format: cell-based, human; details: 72 hours
Method: Thus, we measured the IC50 of the six NSCLC cell lines from Example 2 to both cisplatin and carboplatin to determine if the sensitivity of these six NSCLC cell lines to the two drugs are correlated.
(§3) Drug-DNA adduct formation and repair was measured by accelerator mass spectrometry.
(§4) These two cell lines were also cultured with a range of concentrations of cisplatin, carboplatin, gemcitabine, doxorubicin, methotrexate and vinblastine for 72 hours to determine IC50 for these other drugs (FIG. 16C). These drugs were chosen because of their frequent use in the treatment of bladder cancer.

HT1197 = assay: MTT assay IC50, bladder cancer cell line; format: cell-based
From the text: (§5) If these diadducts are the predominant DNA lesion responsible for cell death, then the IC50 of the two drugs should be linearly related. Thus, we measured the IC50 of the six NSCLC cell lines from Example 2 to both cisplatin and carboplatin to determine if the sensitivity of these six NSCLC cell lines to the two drugs are correlated. We observed a statistically significant linear correlation of the cytotoxicity of these two drugs in the 6 cell lines used in this study (R^2=0.72, p=0.033, FIG. 9A) and also to six additional ATCC bladder cancer cell lines. (R^2=0.72, p=0.033), FIG. 9B).

T24 = assay: MTT assay IC50, bladder cancer cell line; format: cell-based
From the text: as §5

RT4 = assay: MTT assay IC50, bladder cancer cell line; format: cell-based
From the text: as §5

TCCSUP = assay: MTT assay IC50, bladder cancer cell line; format: cell-based
From the text: as §5

J82 = assay: MTT assay IC50, bladder cancer cell line; format: cell-based
From the text: as §5

5637R = assay: MTT assay IC50, oxaliplatin-resistant bladder cancer sub-line; format: cell-based, human; details: 5637R, 72 hours
Method: as §3
To confirm that 5637 was the original ATCC cell line, and that 5637R originated from the parental 5637 cell line, both cultures were sent to the ATCC Cell Line Authentication Service for cell verification per the ATCC protocol. More specifically, fifteen short tandem repeat (STR) loci plus the gender determining locus, amelogenin, were amplified using the commercially available PowerPlex® 16HS Kit from Promega.
as §4

A549, H1975 and HCC827 = assay: carboplatin-DNA monoadducts by AMS, average of resistant NSCLC lines; format: cell-based, human; details: three resistant cell lines
Method: NSCLC cell lines were cultured to >90% confluence, dosed with [^14C]carboplatin, and subjected to DNA isolation and AMS analysis. 60 mm dishes were seeded at a density of 1×10^6 cells/dish and allowed to attach overnight in a 37° C. humidified atmosphere containing 5% CO2. At hour 0, cells were dosed with 1 μM (relevant microdose concentration) or 100 μM carboplatin (therapeutically relevant concentration), each comprising 0.3 μM [^14C]carboplatin (50,000 dpm/ml). Cells were incubated with [^14C]carboplatin for 4 h before washing and cultured with carboplatin-free medium to mimic the in vivo carboplatin half-life (1.3-6 hours) in patients. DNA was harvested from the cell lines at hours 0, 2, 4, 8 and 24 hours after initial dosing. Ten micrograms of DNA per sample was converted to graphite and measured by AMS for ^14C/total C quantification. Triplicate sets of AMS experiments were performed for each cell line and time point. The 14C/total C ratio was converted to 14C atoms per DNA base-pair according to the algorithm described herein to provide values of carboplatin-DNA monoadducts per 10^8 nucleotides. The data was plotted as carboplatin-DNA monoadducts per 10^8 nucleotide (nt) vs time (FIGS. 8A and 8B). There was a time-dependent increase in the carboplatin-DNA monoadduct concentration during the first 4 hours of incubation with therapeutic or microdosing carboplatin (FIGS. 8A and 8B). […]

Question: Which IC50 (H727) does the source give for N.N.O=C([O-])C1(C(=O)[O-])CCC1.[Pt+2] [carboplatin] here?
Answer: Its IC50 is 53.5 ± 3.65 µM.

Question: What about the IC50 (A549) of the same compound?
Answer: Its IC50 is 196 µM.

Question: And the IC50 (H460)?
Answer: Its IC50 is 22 ± 5.23 µM.

Question: What about the IC50 (H1975) of the same compound?
Answer: The IC50 was 88.5 ± 30.8 µM.

Question: And the IC50 (HCC827)?
Answer: The IC50 was 86.2 ± 10.9 µM.

Question: What about the IC50 (H23) of the same compound?
Answer: The IC50 was 19.4 ± 8.65 µM.

Question: And the Cmax ([1]; microdose 0.373 mg/kg)?
Answer: Its Cmax is 1 µM.

Question: What about the “initial T1/2” value ([1]; microdose 0.373 mg/kg bolus tail vein) of the same compound?
Answer: Its value is 50 min.

Question: And the Cmax ([1]; therapeutic dose 37.3 mg/kg)?
Answer: The Cmax was 127 ± 30 µM.

Question: What about the “initial T1/2” value ([1]; therapeutic dose 37.3 mg/kg bolus tail vein) of the same compound?
Answer: Its value is 50 min.

Question: And the IC50 5637?
Answer: Its IC50 is 24.3 µM.

Question: What about the IC50 (5637; listed as Carboplatin) of the same compound?
Answer: The IC50 was 24.35 ± 0.12 µM.

Question: And the IC50 (HT1197)?
Answer: The IC50 was 84.5 ± 24.6 µM.

Question: And the IC50 (T24)?
Answer: Its IC50 is 42.5 ± 6.99 µM.

Question: What about the IC50 (RT4) of the same compound?
Answer: The IC50 was 56.9 ± 11.2 µM.

Question: What about the IC50 (TCCSUP) of the same compound?
Answer: Its IC50 is 91.5 ± 6.81 µM.

Question: And the IC50 (J82)?
Answer: Its IC50 is 168 ± 19.9 µM.

Question: What about the IC50 (5637R) of the same compound?
Answer: Its IC50 is 72.2 µM.

Question: And the “average area under curve (AUC) of carboplatin-DNA monoadducts” value (A549, H1975 and HCC827; microdosing)?
Answer: The value was 43.36±9.55 hr-monoadducts per 10^8 nt.

Question: What about the “average area under curve (AUC) of carboplatin-DNA monoadducts” value (A549, H1975 and HCC827; therapeutic dosing) of the same compound?
Answer: The value was 3916.7±1280.0 hr-monoadducts per 10^8 nt.
